# System: RAW264.7
# Assay: Anti-inflammatory activity in mouse RAW264.7 cells assessed as inhibition of LPS-induced nitric oxide production
# Assay type: functional, cell-based
row,IC50,SMILES
1,> 200 µM,C=C[C@H]1[C@H](O[C@@H]2O[C@H](COC(C)=O)[C@@H](O)[C@H](OC(C)=O)[C@H]2OC(C)=O)OC=C2C(=O)OCC[C@H]21
2,> 200 µM,C=C[C@H]1[C@H](O[C@@H]2O[C@H](COC(C)=O)[C@@H](O)[C@H](OC(C)=O)[C@H]2OC(=O)c2cccc(O)c2O)OC=C2C(=O)OCC[C@H]21
3,> 200 µM,C=C[C@H]1[C@H](O[C@@H]2O[C@H](COC(=O)c3cccc(O)c3O[C@@H]3O[C@H](CO)[C@@H](O)[C@H](O)[C@H]3O)[C@@H](O)[C@H](OC(C)=O)[C@H]2OC(=O)c2cccc(O)c2O)OC=C2C(=O)OCC[C@H]21
4,> 200 µM,C=C[C@H]1[C@H](O[C@@H]2O[C@H](CO)[C@@H](OC(=O)c3cccc(O)c3O[C@@H]3O[C@H](CO)[C@@H](O)[C@H](O)[C@H]3O)[C@H](O)[C@H]2O)OC=C2C(=O)OCC[C@H]21
5,> 200 µM,C=C[C@H]1[C@H](O[C@@H]2O[C@H](COC(=O)c3cccc(O)c3O[C@@H]3O[C@H](CO)[C@@H](O)[C@H](O)[C@H]3O)[C@@H](O)[C@H](O)[C@H]2O)OC=C2C(=O)OCC[C@H]21

# The remaining lines, values behind:
row,SMILES,IC50
1,C=C[C@H]1[C@H](O[C@@H]2O[C@H](COC(C)=O)[C@@H](OC(C)=O)[C@H](O)[C@H]2OC(C)=O)OC=C2C(=O)OCC[C@H]21,52.8 µM
2,C=C[C@H]1[C@H](O[C@@H]2O[C@H](COC(C)=O)[C@@H](OC(C)=O)[C@H](OC(C)=O)[C@H]2O)OC=C2C(=O)OCC[C@H]21,> 200 µM
3,C=C[C@H]1[C@H](O[C@@H]2O[C@H](COC(C)=O)[C@@H](OC(C)=O)[C@H](O)[C@H]2OC(=O)c2cccc(O)c2O)OC=C2C(=O)OCC[C@H]21,0.69 µM
4,C=C[C@H]1[C@H](O[C@@H]2O[C@H](CO)[C@@H](O)[C@H](O)[C@H]2OC(=O)/C=C/c2ccc(O)cc2)OC=C2C(=O)OCC[C@]21O,> 200 µM
5,C=C[C@H]1[C@H](O[C@@H]2O[C@H](COC(=O)c3cccc(O)c3O[C@@H]3O[C@H](CO)[C@@H](O)[C@H](O)[C@H]3O)[C@@H](O)[C@H](O)[C@H]2OC(=O)c2cccc(O)c2O)OC=C2C(=O)OCC[C@H]21,> 200 µM
6,C=C[C@H]1[C@H](O[C@@H]2O[C@H](COC(C)=O)[C@@H](OC(=O)c3cccc(O)c3O[C@@H]3O[C@H](CO)[C@@H](O)[C@H](O)[C@H]3O)[C@H](OC(C)=O)[C@H]2OC(=O)c2cccc(O)c2O)OC=C2C(=O)OCC[C@H]21,5.18 µM

# — ChEMBL document CHEMBL3352595, “Anti-inflammatory secoiridoid glycosides from Gentianella azurea” (Bioorg Med Chem Lett, 2014)
